Test results taken from patent US20210253568A1, “AZAINDOLE DERIVATIVES AS RHO-KINASE INHIBITORS” (CHIESI FARMACEUTICI S.p.A., priority 2018, published 2021).

Tests used:
ROCK 1 = ROCK 1 (Homo sapiens, UniProt Q13464); assay: In vitro Rho kinase inhibitory activity assay (ADP-Glo), Rho kinase 1; format: biochemical; details: Ki by Cheng-Prusoff from IC50; 10 μM ATP, 25° C., expressed as range of activity
Procedure: (§1) The effectiveness of compounds of the present invention to inhibit Rho kinase activity can be determined in a 10 μl assay containing 40 mM Tris pH7.5, 20 mM MgCl2 0.1 mg/mi BSA, 50 μM DTT and 2.5 μM peptide substrate (Myelin Basic Protein) using an ADP-Glo kit (Promega). Compounds were dissolved in DMSO such that the final concentration of DMSO was 1% in the assay. All reactions/incubations are performed at 25° C. Compound (2 ul) and either Rho kinase 1 or 2 (4 μl) were mixed and incubated for 30 mins. Reactions were initiated by addition of ATP (4 μl) such that the final concentration of ATP in the assay was 10 μM. After a 1 hour incubation 10 μl of ADP-Glo Reagent was added and after a further 45 minute incubation 20 ul of Kinase Detection Buffer was added and the mixture incubated for a further 30 minutes. The luminescent signal was measured on a luminometer. […] Compounds were tested in dose-response format and the inhibition of kinase activity was calculated at each concentration of compound. To determine the IC50 (concentration of compound required to inhibit 50% of the enzyme activity) data were fit to a plot of % inhibition vs Log10 compound concentration using a sigmoidal fit with a variable slope and fixing the maximum to 100% and the minimum to 0%. To determine the Ki values the Cheng-Prusoff equation was utilized (Ki=IC50/(1+[S]/Km).

ROCK 2 = ROCK 2 (Homo sapiens, UniProt O75116); assay: In vitro Rho kinase inhibitory activity assay (ADP-Glo), Rho kinase 2; format: biochemical; details: Ki by Cheng-Prusoff from IC50; 10 μM ATP, 25° C., expressed as range of activity
Procedure: as §1

ROCK 2, sequence (O75116 whole entry): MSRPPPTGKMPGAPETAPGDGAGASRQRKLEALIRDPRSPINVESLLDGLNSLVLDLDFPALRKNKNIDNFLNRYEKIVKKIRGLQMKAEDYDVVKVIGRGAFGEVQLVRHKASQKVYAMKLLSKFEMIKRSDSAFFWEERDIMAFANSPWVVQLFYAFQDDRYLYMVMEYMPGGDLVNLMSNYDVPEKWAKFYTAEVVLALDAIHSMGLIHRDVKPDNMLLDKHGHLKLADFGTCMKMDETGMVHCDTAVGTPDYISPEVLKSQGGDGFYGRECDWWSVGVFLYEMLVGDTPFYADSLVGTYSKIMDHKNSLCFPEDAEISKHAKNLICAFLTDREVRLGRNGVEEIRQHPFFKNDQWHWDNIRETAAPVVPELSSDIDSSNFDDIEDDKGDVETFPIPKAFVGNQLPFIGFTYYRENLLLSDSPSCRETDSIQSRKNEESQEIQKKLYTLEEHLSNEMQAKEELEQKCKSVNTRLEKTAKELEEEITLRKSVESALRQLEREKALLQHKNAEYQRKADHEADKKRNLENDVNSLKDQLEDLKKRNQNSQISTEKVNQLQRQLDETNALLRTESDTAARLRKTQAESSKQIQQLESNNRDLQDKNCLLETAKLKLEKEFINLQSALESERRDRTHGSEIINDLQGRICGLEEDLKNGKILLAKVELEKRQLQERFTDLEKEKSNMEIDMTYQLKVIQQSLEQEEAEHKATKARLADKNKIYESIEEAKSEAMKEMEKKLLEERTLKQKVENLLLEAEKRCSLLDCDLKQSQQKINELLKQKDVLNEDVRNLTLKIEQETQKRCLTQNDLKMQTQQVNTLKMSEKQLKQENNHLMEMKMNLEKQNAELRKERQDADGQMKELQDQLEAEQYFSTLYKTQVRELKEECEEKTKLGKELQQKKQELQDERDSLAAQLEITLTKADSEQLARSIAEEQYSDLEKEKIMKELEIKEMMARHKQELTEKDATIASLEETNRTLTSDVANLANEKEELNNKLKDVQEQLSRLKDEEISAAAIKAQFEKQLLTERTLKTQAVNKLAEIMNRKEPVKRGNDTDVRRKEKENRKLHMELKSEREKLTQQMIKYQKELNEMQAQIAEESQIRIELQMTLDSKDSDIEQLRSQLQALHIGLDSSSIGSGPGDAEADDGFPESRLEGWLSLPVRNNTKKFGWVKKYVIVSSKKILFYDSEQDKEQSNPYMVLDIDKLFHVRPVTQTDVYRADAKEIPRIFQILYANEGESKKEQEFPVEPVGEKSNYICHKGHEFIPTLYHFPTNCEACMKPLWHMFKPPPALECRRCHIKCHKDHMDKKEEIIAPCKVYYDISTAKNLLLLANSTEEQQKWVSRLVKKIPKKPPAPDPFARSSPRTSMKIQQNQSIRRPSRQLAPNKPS
ROCK 1, sequence (Q13464 whole entry): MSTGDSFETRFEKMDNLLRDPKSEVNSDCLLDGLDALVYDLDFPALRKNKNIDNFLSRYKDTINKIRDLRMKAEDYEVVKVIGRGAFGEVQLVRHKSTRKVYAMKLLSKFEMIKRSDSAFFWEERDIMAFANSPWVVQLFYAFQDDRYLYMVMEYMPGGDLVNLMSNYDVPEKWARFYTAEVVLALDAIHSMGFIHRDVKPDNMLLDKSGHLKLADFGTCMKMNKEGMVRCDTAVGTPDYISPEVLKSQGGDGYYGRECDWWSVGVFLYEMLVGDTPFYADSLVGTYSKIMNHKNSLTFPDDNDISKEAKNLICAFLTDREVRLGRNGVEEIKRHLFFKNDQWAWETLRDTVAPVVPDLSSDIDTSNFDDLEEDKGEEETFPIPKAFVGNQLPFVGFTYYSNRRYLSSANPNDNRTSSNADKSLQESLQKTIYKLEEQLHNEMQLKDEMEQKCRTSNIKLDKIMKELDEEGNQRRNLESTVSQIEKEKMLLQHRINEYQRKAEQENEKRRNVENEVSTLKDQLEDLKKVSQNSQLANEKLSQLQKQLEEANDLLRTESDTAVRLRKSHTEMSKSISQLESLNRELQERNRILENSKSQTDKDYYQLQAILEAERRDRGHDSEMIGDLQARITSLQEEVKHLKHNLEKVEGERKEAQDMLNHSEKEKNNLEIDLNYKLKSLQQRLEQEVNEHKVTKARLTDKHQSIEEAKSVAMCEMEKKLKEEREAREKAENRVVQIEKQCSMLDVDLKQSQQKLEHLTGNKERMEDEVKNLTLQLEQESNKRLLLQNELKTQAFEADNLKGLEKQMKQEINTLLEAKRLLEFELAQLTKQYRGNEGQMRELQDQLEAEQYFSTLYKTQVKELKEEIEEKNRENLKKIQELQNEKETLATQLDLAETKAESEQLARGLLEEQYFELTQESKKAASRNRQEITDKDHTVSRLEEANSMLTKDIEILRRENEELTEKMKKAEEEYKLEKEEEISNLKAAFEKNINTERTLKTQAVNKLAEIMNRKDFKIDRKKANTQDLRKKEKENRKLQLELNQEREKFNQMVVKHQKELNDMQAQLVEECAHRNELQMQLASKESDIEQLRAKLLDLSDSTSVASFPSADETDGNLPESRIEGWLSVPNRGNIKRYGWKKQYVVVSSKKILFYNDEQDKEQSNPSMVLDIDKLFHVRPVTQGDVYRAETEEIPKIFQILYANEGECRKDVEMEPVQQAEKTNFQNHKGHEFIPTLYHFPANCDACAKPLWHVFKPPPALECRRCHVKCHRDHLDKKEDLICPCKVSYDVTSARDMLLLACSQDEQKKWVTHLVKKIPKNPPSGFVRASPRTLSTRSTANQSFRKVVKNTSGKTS

c1cc(-c2c[nH]c3nccc(Oc4ccc5c(c4)CNCC5)c23)ccn1 [Example 1, 7-((3-(pyridin-4-yl)-1H-pyrrolo[2,3-b]pyridin-4-yl)oxy)-1,2,3,4-tetrahydroisoquinoline]
Ki (ROCK 1): < 3 nM | Ki (ROCK 2): < 3 nM

NCc1ccc(Oc2ccnc3[nH]cc(-c4cncc(OCc5ccccc5)c4)c23)cc1 [Example 2, (4-((3-(5-(benzyloxy)pyridin-3-yl)-1H-pyrrolo[2,3-b]pyridin-4-yl)oxy)phenyl)methanamine]
Ki (ROCK 1): > 30 nM | Ki (ROCK 2): > 30 nM

NCc1ccc(Oc2ccnc3[nH]cc(-c4cccc(OCc5ccccc5)c4)c23)cc1 [Example 3, (4-((3-(3-(benzyloxy)phenyl)-1H-pyrrolo[2,3-b]pyridin-4-yl)oxy)phenyl)methanamine]
Ki (ROCK 1): > 30 nM | Ki (ROCK 2): > 30 nM

Cc1ccc(S(=O)(=O)CCNc2cc(-c3c[nH]c4nccc(Oc5c(F)cc(CN)cc5F)c34)ncn2)cc1 [Example 4, 6-(4-(4-(aminomethyl)-2,6-difluorophenoxy)-1H-pyrrolo[2,3-b]pyridin-3-yl)-N-(2-tosylethyl)pyrimidin-4-amine]
Ki (ROCK 1): < 3 nM | Ki (ROCK 2): < 3 nM

NCc1cc(F)c(Oc2ncnc3[nH]cc(-c4ccnc(NCc5ccccc5)c4)c23)c(F)c1 [Example 5, 4-(4-(4-(aminomethyl)-2,6-difluorophenoxy)-7H-pyrrolo[2,3-d]pyrimidin-5-yl)-N-benzylpyridin-2-amine]
Ki (ROCK 1): < 3 nM | Ki (ROCK 2): < 3 nM

Fc1cc2c(cc1Oc1ncnc3[nH]cc(-c4ccnc(NCc5ccccc5)c4)c13)CNCC2 [Example 6, N-benzyl-4-(4-((6-fluoro-1,2,3,4-tetrahydroisoquinolin-7-yl)oxy)-7H-pyrrolo[2,3-d]pyrimidin-5-yl)pyridin-2-amine]
Ki (ROCK 1): 3 to 30 nM | Ki (ROCK 2): < 3 nM

NCc1cc(F)c(Oc2ccnc3[nH]cc(-c4ccnc(NCc5cccnc5)c4)c23)c(F)c1 [Example 7, 4-(4-(4-(aminomethyl)-2,6-difluorophenoxy)-1H-pyrrolo[2,3-b]pyridin-3-yl)-N-(pyridin-3-ylmethyl)pyridin-2-amine]
Ki (ROCK 1): < 3 nM | Ki (ROCK 2): < 3 nM

NCc1cc(F)c(Oc2ccnc3[nH]cc(-c4ccnc(NCC5CC5)c4)c23)c(F)c1 [Example 8, 4-(4-(4-(aminomethyl)-2,6-difluorophenoxy)-1H-pyrrolo[2,3-b]pyridin-3-yl)-N-(cyclopropylmethyl)pyridin-2-amine]
Ki (ROCK 1): < 3 nM | Ki (ROCK 2): < 3 nM

c1ccc(CNc2cc(-c3c[nH]c4nccc(Oc5ccc6c(c5)CNCC6)c34)on2)cc1 [Example 9, N-benzyl-5-(4-((1,2,3,4-tetrahydroisoquinolin-7-yl)oxy)-1H-pyrrolo[2,3-b]pyridin-3-yl)isoxazol-3-amine]
Ki (ROCK 1): 3 to 30 nM | Ki (ROCK 2): < 3 nM

O=C(NC1CC1)C1CCN(c2cc(-c3c[nH]c4nccc(Oc5ccc6c(c5)CNCC6)c34)ccn2)C1 (centres unmarked) [Example 10, N-cyclopropyl-1-(4-(4-((1,2,3,4-tetrahydroisoquinolin-7-yl)oxy)-1H-pyrrolo[2,3-b]pyridin-3-yl)pyridin-2-yl)pyrrolidine-3-carboxamide]
Ki (ROCK 1): < 3 nM | Ki (ROCK 2): < 3 nM

NCc1cc(F)c(Oc2ccnc3[nH]cc(-c4ccnc(NC(=O)C5CC5)c4)c23)c(F)c1 [Example 11, N-(4-(4-(4-(aminomethyl)-2,6-difluorophenoxy)-1H-pyrrolo[2,3-b]pyridin-3-yl)pyridin-2-yl)cyclopropanecarboxamide]
Ki (ROCK 1): < 3 nM | Ki (ROCK 2): < 3 nM

O=C(Cn1cc(-c2c[nH]c3nccc(Oc4ccc5c(c4)CNCC5)c23)nn1)NCc1ccccc1 [Example 12, N-benzyl-2-(4-(4-((1,2,3,4-tetrahydroisoquinolin-7-yl)oxy)-1H-pyrrolo[2,3-b]pyridin-3-yl)-1H-1,2,3-triazol-1-yl)acetamide]
Ki (ROCK 1): 3 to 30 nM | Ki (ROCK 2): < 3 nM

O=C(NCc1ccccc1)c1cc(-c2c[nH]c3nccc(Oc4ccc5c(c4)CNCC5)c23)on1 [Example 13, N-benzyl-5-(4-((1,2,3,4-tetrahydroisoquinolin-7-yl)oxy)-1H-pyrrolo[2,3-b]pyridin-3-yl)isoxazole-3-carboxamide]
Ki (ROCK 1): 3 to 30 nM | Ki (ROCK 2): < 3 nM
